According to BindingDB's records for doi:10.1016/j.ejmech.2016.03.076 (Chinese Academy of Sciences (Cas), 2016):

Columns and labels:
[1] = Inhibition of c-Met in human EBC-1 cells assessed as reduction in cell proliferation after 72 hrs by SRB or MTT assay
[2] = Inhibition of c-Met in human MKN45 cells assessed as reduction in cell proliferation after 72 hrs by SRB or MTT assay
[3] = Inhibition of TPR-MET in mouse BAF3 cells assessed as reduction in cell proliferation after 72 hrs by SRB or MTT assay

| IC50 [1] [nM] | IC50 [2] [nM] | IC50 [3] [nM] | SMILES |
| --- | --- | --- | --- |
| 0.85 | 0.46 | – | Fc1ccc(-c2cnc3nnc(C(F)(F)c4ccc5ncccc5c4)n3n2)cc1 |
| 5.5 | 9.5 | 8.6 | Cn1cc(-c2ccc3nnc(C(F)(F)c4ccc5ncccc5c4)n3n2)cn1 [US9062045, Comparator No. 1 (JNJ-38877605)] |
